Experimental data from patent US20230234943A1, “TREX1 INHIBITORS AND USES THEREOF” (Tempest Therapeutics, Inc., priority 2020, published 2023).

target: T1, Human TREX1 enzyme (amino acids 1-242) (Homo sapiens, UniProt Q9NSU2); experiment: Human TREX1 enzymatic assay with dsDNA native oligonucleotide (Picogreen fluorescence); format: biochemical; settings: 2 mM dithiothreitol in assay buffer; 50 nM dsDNA oligonucleotide; 30 min preincubation at 25° C.; read-out: TREX1/Human + DTT IC50 AVG
T1 construct: Human TREX1 enzyme (amino acids 1-242)
T1 sequence (Q9NSU2 1-242): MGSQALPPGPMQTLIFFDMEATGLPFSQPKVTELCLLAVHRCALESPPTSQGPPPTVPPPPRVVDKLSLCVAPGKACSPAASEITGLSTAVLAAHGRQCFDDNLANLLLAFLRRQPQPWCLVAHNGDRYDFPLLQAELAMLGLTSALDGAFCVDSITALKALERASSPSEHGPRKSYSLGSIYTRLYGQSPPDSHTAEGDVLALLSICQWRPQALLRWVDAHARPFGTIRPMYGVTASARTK
Procedure, shortened: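 Remaining dsDNA quantified by Picogreen fluorescence after EDTA quench, with no-enzyme and DMSO wells as controls. Reactions used 50 nM annealed oligonucleotide for 5–15 min at 25 °C, after a 30 min compound–enzyme preincubation (0.8–0.16 nM TREX1; 2% DMSO; pH 7.7 Tris, 5 mM MgCl2).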

Compound	IC50
COc1cc(-c2nc3ccc(S(=O)(=O)N(C)C)cc3n2C2(C)COC2)c(F)c(O)c1O [Example 228, 2-(2-fluoro-3,4-dihydroxy-5-methoxyphenyl)-N,N-dimethyl-1-(3-methyloxetan-3-yl)-1H-benzo[d]imidazole-6-sulfonamide]	10000 to 100000 nM
COc1cc(-c2nc3cnccc3n2C2(C)COC2)c(F)c(O)c1O [Example 229, 3-fluoro-6-methoxy-4-(1-(3-methyloxetan-3-yl)-1H-imidazo[4,5-c]pyridin-2-yl)benzene-1,2-diol]	1000 to 10000 nM
COc1cc(-c2nc3ccncc3n2C2(C)COC2)c(F)c(O)c1O [Example 230, 3-fluoro-6-methoxy-4-[3(3-methyloxetan-3-yl)-3H-imidazo[4,5-c]pyridin-2-yl]benzene-1,2-diol]	100 to 1000 nM
COc1cc(-c2nc3cc(F)ccc3[nH]2)c(F)c(O)c1O [Example 231, 3-fluoro-4-(5-fluoro-1H-benzo[d]imidazol-2-yl)-6-methoxybenzene-1,2-diol]	> 100000 nM
COc1cc(-c2nc3ccccc3n2C2(C)COC2)c(F)c(O)c1O [Example 232, 3-fluoro-6-methoxy-4-(1-(3-methyloxetan-3-yl)-1H-benzo[d]imidazol-2-yl)benzene-1,2-diol]	100 to 1000 nM
Oc1cc(-c2nc3ccccc3n2C2CCC2)cc(OC(F)(F)F)c1O [Example 233, 5-(1-cyclobutyl-1H-benzo[d]imidazol-2-yl)-3-(trifluoromethoxy)benzene-1,2-diol]	> 100000 nM
CCOc1cc(-c2nc3ccccc3n2C2CCC2)cc(O)c1O [Example 234, 5-(1-cyclobutyl-1H-1,3-benzodiazol-2-yl)-3-ethoxybenzene-1,2-diol]	1000 to 10000 nM
COc1cc(-c2nc3cc(N)ccc3n2C2CCC2)c(C)c(O)c1O [Example 235, 4-(5-amino-1-cyclobutyl-1H-benzo[d]imidazol-2-yl)-6-methoxy-3-methylbenzene-1,2-diol]	100 to 1000 nM
COc1cc(-c2nc3ccc(CNc4ccccc4)cc3n2C2(C)COC2)c(F)c(O)c1O [Example 236, 3-fluoro-6-methoxy-4-(1-(3-methyloxetan-3-yl)-6-((phenylamino)methyl)-1H-benzo[d]imidazol-2-yl)benzene-1,2-diol]	100 to 1000 nM
COc1cc(-c2nc3cc(NC(C)=O)ncc3n2C2(C)COC2)c(F)c(O)c1O [Example 237, N-(2-(2-fluoro-3,4-dihydroxy-5-methoxyphenyl)-3-(3-methyloxetan-3-yl)-3H-imidazo[4,5-c]pyridin-6-yl)acetamide]	≤ 100 nM
COc1cc(-c2nc3ccc(-c4nnco4)cc3n2C2(C)COC2)c(F)c(O)c1O [Example 238, 3-fluoro-6-methoxy-4-[1-(3-methyloxetan-3-yl)-6-(1,3,4-oxadiazol-2-yl)-1H-1,3-benzodiazol-2-yl] benzene-1,2-diol]	≤ 100 nM
COc1cc(-c2nc3ccccc3n2CC2CCC2)c(C)c(O)c1O [Example 239, 4-(1-(cyclobutylmethyl)-1H-benzo[d]imidazol-2-yl)-6-methoxy-3-methylbenzene-1,2-diol]	> 100000 nM
COc1cc(-c2nc3cc(N4CCC4)ccc3[nH]2)c(C2CC2)c(O)c1O [Example 242, 4-(5-(azetidin-1-yl)-1H-benzo[d]imidazol-2-yl)-3-cyclopropyl-6-methoxybenzene-1,2-diol]	> 100000 nM
COc1cc(-c2nc3ccc(C(=O)NC(C)(C)C)cc3n2C2(C)COC2)c(F)c(O)c1O [Example 243, N-tert-butyl-2-(2-fluoro-3,4-dihydroxy-5-methoxyphenyl)-1-(3-methyloxetan-3-yl)-1H-1,3-benzodiazole-6-carboxamide]	100 to 1000 nM
COc1cc(-c2nc3ccc(C(=O)NCC(F)(F)F)cc3n2C2(C)COC2)c(F)c(O)c1O [Example 244, 2-(2-fluoro-3,4-dihydroxy-5-methoxyphenyl)-1-(3-methyloxetan-3-yl)-N-(2,2,2-trifluoroethyl)-1H-1,3-benzodiazole-6-carboxamide]	≤ 100 nM

Other lines, results leading:

IC50	Compound
1000 to 10000 nM	COc1cc(-c2nc3ccc(C(=O)N(C)C)cc3n2C2(C)COC2)c(F)c(O)c1O [Example 245, 2-(2-fluoro-3,4-dihydroxy-5-methoxyphenyl)-N,N-dimethyl-1-(3-methyloxetan-3-yl)-1H-benzo[d]imidazole-6-carboxamide]
≤ 100 nM	COc1cc(-c2nc3ccc(C(=O)Nc4ccccc4)cc3n2C2(C)COC2)c(F)c(O)c1O [Example 246, 2-(2-fluoro-3,4-dihydroxy-5-methoxyphenyl)-1-(3-methyloxetan-3-yl)-N-phenyl-1H-benzo[d]imidazole-6-carboxamide]
≤ 100 nM	COc1cc(-c2nc3ccc(C(=O)Nc4cnoc4)cc3n2C2(C)COC2)c(F)c(O)c1O [Example 247, 2-(2-fluoro-3,4-dihydroxy-5-methoxyphenyl)-N-(isoxazol-4-yl)-1-(3-methyloxetan-3-yl)-1H-benzo[d]imidazole-6-carboxamide]
≤ 100 nM	COc1cc(-c2nc3ccc(C(=O)Nc4ccncc4)cc3n2C2(C)COC2)c(F)c(O)c1O [Example 248, 2-(2-fluoro-3,4-dihydroxy-5-methoxyphenyl)-1-(3-methyloxetan-3-yl)-N-(pyridin-4-yl)-1H-1,3-benzodiazole-6-carboxamide]
≤ 100 nM	COc1cc(-c2nc3ccc(C(=O)NC45CC(C4)C5)cc3n2C2(C)COC2)c(F)c(O)c1O [Example 249, N-(bicyclo[1.1.1]pentan-1-yl)-2-(2-fluoro-3,4-dihydroxy-5-methoxyphenyl)-1-(3-methyloxetan-3-yl)-1H-benzo[d]imidazole-6-carboxamide]
≤ 100 nM	COc1cc(-c2nc3ccc(C(=O)Nc4cccnc4)cc3n2C2(C)COC2)c(F)c(O)c1O [Example 250, 2-(2-fluoro-3,4-dihydroxy-5-methoxyphenyl)-1-(3-methyloxetan-3-yl)-N-(pyridin-3-yl)-1H-1,3-benzodiazole-6-carboxamide]
≤ 100 nM	COc1cc(-c2nc3ccc(C(=O)NCC(F)F)cc3n2C2(C)COC2)c(F)c(O)c1O [Example 251, N-(2,2-difluoroethyl)-2-(2-fluoro-3,4-dihydroxy-5-methoxyphenyl)-1-(3-methyloxetan-3-yl)-1H-1,3-benzodiazole-6-carboxamide]
≤ 100 nM	COc1cc(-c2nc3ccc(C(=O)NC(C)C)cc3n2C2(C)COC2)c(F)c(O)c1O [Example 252, 2-(2-fluoro-3,4-dihydroxy-5-methoxyphenyl)-N-isopropyl-1-(3-methyloxetan-3-yl)-1H-benzo[d]imidazole-6-carboxamide]
≤ 100 nM	COc1cc(-c2nc3ccc(C(=O)NC4CC4)cc3n2C2(C)COC2)c(F)c(O)c1O [Example 253, N-cyclopropyl-2-(2-fluoro-3,4-dihydroxy-5-methoxyphenyl)-1-(3-methyloxetan-3-yl)-1H-benzo[d]imidazole-6-carboxamide]
≤ 100 nM	COc1cc(-c2nc3ccc(C(=O)NC4COC4)cc3n2C2(C)COC2)c(F)c(O)c1O [Example 254, 2-(2-fluoro-3,4-dihydroxy-5-methoxyphenyl)-1-(3-methyloxetan-3-yl)-N-(oxetan-3-yl)-1H-benzo[d]imidazole-6-carboxamide]
100 to 1000 nM	COc1cc(-c2nc3ccc(C(=O)NC4CCNCC4)cc3n2C2(C)COC2)c(F)c(O)c1O [Example 255, 2-(2-fluoro-3,4-dihydroxy-5-methoxyphenyl)-1-(3-methyloxetan-3-yl)-N-(piperidin-4-yl)-1H-benzo[d]imidazole-6-carboxamide]
≤ 100 nM	COc1cc(-c2nc3ccc(C(=O)NC4CCC(F)(F)CC4)cc3n2C2(C)COC2)c(F)c(O)c1O [Example 256, N-(4,4-difluorocyclohexyl)-2-(2-fluoro-3,4-dihydroxy-5-methoxyphenyl)-1-(3-methyloxetan-3-yl)-1H-benzo[d]imidazole-6-carboxamide]
100 to 1000 nM	COc1cc(-c2nc3ccc(C(=O)NC4CCN(C)C4)cc3n2C2(C)COC2)c(F)c(O)c1O (centres unmarked) [Example 257, 2-(2-fluoro-3,4-dihydroxy-5-methoxyphenyl)-1-(3-methyloxetan-3-yl)-N-(1-methylpyrrolidin-3-yl)-1H-benzo[d]imidazole-6-carboxamide]
≤ 100 nM	COc1cc(-c2nc3ccc(C(=O)Nc4ccon4)cc3n2C2(C)COC2)c(F)c(O)c1O [Example 258, 2-(2-fluoro-3,4-dihydroxy-5-methoxyphenyl)-1-(3-methyloxetan-3-yl)-N-(1,2-oxazol-3-yl)-1H-1,3-benzodiazole-6-carboxamide]
≤ 100 nM	COc1cc(-c2nc3ccc(C(=O)NC4CNC4)cc3n2C2(C)COC2)c(F)c(O)c1O [Example 259, N-(azetidin-3-yl)-2-(2-fluoro-3,4-dihydroxy-5-methoxyphenyl)-1-(3-methyloxetan-3-yl)-1H-1,3-benzodiazole-6-carboxamide]
100 to 1000 nM	COc1cc(-c2nc3ccc(C(=O)NC4CCN(C)CC4)cc3n2C2(C)COC2)c(F)c(O)c1O [Example 260, 2-(2-fluoro-3,4-dihydroxy-5-methoxyphenyl)-1-(3-methyloxetan-3-yl)-N-(1-methylpiperidin-4-yl)-1H-1,3-benzodiazole-6-carboxamide]
100 to 1000 nM	COc1cc(-c2nc3ccc(C(=O)NC4CCNC4)cc3n2C2(C)COC2)c(F)c(O)c1O (centres unmarked) [Example 261, 2-(2-fluoro-3,4-dihydroxy-5-methoxyphenyl)-1-(3-methyloxetan-3-yl)-N-(pyrrolidin-3-yl)-1H-benzo[d]imidazole-6-carboxamide]
